# What was measured:
# [1] = tested on: ADP-induced thrombocyte aggregation; experiment: ADP-induced thrombocyte aggregation, donor human thrombocyte enriched plasm; type: cell-based; details: ADP inductor; for MA, %: human thrombocyte plasm
# Outline: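 Citrated donor human platelet-rich plasma, normalized to 200-250×10^9/L platelets, was preincubated with compound in Tris-HCl pH 7.4 for 5 min at 37 °C. Aggregation induced by ADP was followed for 3 min by light transmission with stirring at 1200 rpm. Maximum amplitude was taken as % transmittance relative to platelet-free plasma.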
# [2] = tested on: Collagen-induced thrombocyte aggregation; experiment: Collagen-induced thrombocyte aggregation, donor human thrombocyte enriched plasm; type: cell-based; details: collagen inductor; for MA, %: human thrombocyte plasm
# Outline: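 Citrated donor platelet-rich plasma normalized to 200-250×10^9/L was preincubated with compound in Tris-HCl pH 7.4 for 5 min at 37° C. before adding collagen diluted to 10 µg/ml. Aggregation was followed turbidimetrically for 3 min at 1200 rpm stirring, as maximum amplitude (% transmittance relative to platelet-poor plasma).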
# mesentery venules = experiment: Vasodilator properties, microcirculatory vessel responsiveness to noradrenalin, venules; type: in vivo, Wistar male rats
# Protocol: (§1) Vasodilator properties of N,N′-substituted piperazines were evaluated according to their influence on microcirculatory vessel responsiveness.
# (§2) The studies were done on Wistar male rats with mass of 300±30 g (laboratory animals nursery “Rappolovo”, RAMS). The animals were kept with unlimited food (standard ration for laboratory rats K-120 by <<Inform-korm>>, Russia) and water allowance.
# (§3) The solutions of N,N′-substituted piperazines and physiological (control) solution were introduced via bolus injection within 1 min into caudal vein of non-anaesthetized animals according to the dosage of 5.0 ml per 1 kg. Immediately after the introduction the animals were put in separate standard cages for observation.
# (§4) In 30 min after the injection the animals were anaesthetized (thiopental sodium, 60 mg/kg intraperitoneally). The loop of small intestine adjoined to mesoappendix was retrieved through inferomedian incision. To study microcirculation in mesentery venules and arterioles in transmitted light the rat was placed on thermostated microscope objective table. The application of noradrenalin solution (Aguettant, 2 mg/ml, Laboratoire AGUETTANT, France) was done directly on the mesentery (Furness J. B., Marshall J. M., 1974; Yantareva L. I., 2004).
# (§5) The study of microcirculatory vessels was done with LUMAM I1 microscope (LOMO, Russia). The recording of video data was done with the camera (Optics and Electronics ISTA Ltd) attached to a personal computer. The processing of data was done with Video-Test 4.0 software (ISTA Ltd., Russia). The diameter of the vessel wall (D, m) before and after the application of noradrenalin and the starting time of blood flow slowdown induced by noradrenalin were measured (the measurements were done for 1 min after the application).
# mesentery arterioles = experiment: Vasodilator properties, microcirculatory vessel responsiveness to noradrenalin, arterioles; type: in vivo, Wistar male rats
# Protocol: as §1, §2, §3, §4, §5
# [3] = Homo sapiens, 1.25 mmol/L, read-out: (MA0-MAx): MA0 * 100%
# [4] = Homo sapiens, 5.0 mmol/L, read-out: (MA0-MAx): MA0 * 100%
# [5] = Homo sapiens, 7.5 mmol/L, read-out: (MA0-MAx): MA0 * 100%
# [6] = 0.01 mmol/kg, noradrenalin 10^−6 g/ml
# [7] = 0.025 mmol/kg, noradrenalin 10^−7 g/ml
smiles,measurement,setting,value
"O=C(O)/C=C/c1ccc(Cn2ccnc2)cc1 [Ozagrel, reference compound]","MA, %",[1]; 1.25 mmol/L,12.9 ± 2.1%
same,"MA, %",[1]; 2.50 mmol/L,10.6 ± 2.5%
same,"MA, %",[1]; 5.0 mmol/L,9.6 ± 2.5%
same,"MA, %",[1]; 7.5 mmol/L,4.2 ± 1.2%
same,inhibition at 1250 µM,[1]; [3],2.3%
same,inhibition at 2500 µM,"[1]; Homo sapiens, 2.50 mmol/L, read-out: (MA0-MAx): MA0 * 100%",19.7%
same,inhibition at 5000 µM,[1]; [4],63.6%
same,inhibition at 7500 µM,[1]; [5],68.2%
same,"MA, %",[2]; 0.5 mmol/L,74.3 ± 7.9%
same,"MA, %",[2]; 1.25 mmol/L,64.1 ± 12.0%
same,"MA, %",[2]; 2.5 mmol/L,60.0 ± 2.5%
same,"MA, %",[2]; 5.0 mmol/L,54.0 ± 12.9%
same,"MA, %",[2]; 7.5 mmol/L,34.2 ± 11.2%
same,inhibition at 500 µM,"[2]; Homo sapiens, 0.5 mmol/L, read-out: (MA0-MAx): MA0 * 100%",3.1%
same,inhibition at 1250 µM,[2]; [3],16.4%
same,inhibition at 2500 µM,"[2]; Homo sapiens, 2.5 mmol/L, read-out: (MA0-MAx): MA0 * 100%",21.8%
same,inhibition at 5000 µM,[2]; [4],29.6%
same,inhibition at 7500 µM,[2]; [5],55.4%
same,% of vessel constriction,mesentery venules; [6],44%
same,"Blood flow slowdown, Latent period of slowdown",mesentery venules; [6],32 ± 4 s
same,% of vessel constriction,mesentery venules; [7],27%
same,"Blood flow slowdown, Latent period of slowdown, s",mesentery venules; [7],No slowdown
same,% of vessel constriction,mesentery arterioles; [6],80%
same,"Blood flow slowdown, Latent period of slowdown",mesentery arterioles; [6],27 ± 6 s
same,% of vessel constriction,mesentery arterioles; [7],27%
same,"Blood flow slowdown, Latent period of slowdown, s",mesentery arterioles; [7],No slowdown

# From US9249115B2, “N,N1 substituted piperazines having combined antiaggregant, anticoagulant and vasodilatory activity, and method for producing same” (Vertex Closed Joint Stock Company, priority 2011, dated 2016)
